# Source: US4123612A, “7-(5-Am ino-5-carboxyvaleramido)-3-(carbamoyoloxymethyl)-3-cephem-4-carboxylic acid” (Eli Lilly and Company, priority 1974, dated 1978)
# How the values were obtained:
# Escherichia coli 0127 = assay: Bauer-Kirby disc diffusion, zone of inhibition; format: cell-based
# Pseudomonas sp. Ps 24 = assay: Bauer-Kirby disc diffusion, zone of inhibition; format: cell-based
# Escherichia coli EC 25 = assay: Bauer-Kirby disc diffusion, zone of inhibition; format: cell-based
# solubility = format: physicochemical
# [1] = tested on: Klebsiella-Aerobacter KA 14; assay: Bauer-Kirby disc diffusion, zone of inhibition; format: cell-based
# [2] = tested on: Staphylococcus aureus 3055; assay: Bauer-Kirby disc diffusion, zone of inhibition; format: cell-based
# Pseudomonas sp. Ps 30 = assay: Bauer-Kirby disc diffusion, zone of inhibition; format: cell-based
# Proteus sp. PR7 = assay: Bauer-Kirby disc diffusion, zone of inhibition; format: cell-based
# Salmonella typhosa SA 16 = assay: Bauer-Kirby disc diffusion, zone of inhibition; conditions: Salmonella enterica
# Text: (§1) The evaluation was made on the monoammonium salts of separated factors I and II.
# [3] = tested on: Staphylococcus aureus 3074; assay: Bauer-Kirby disc diffusion, zone of inhibition; format: cell-based
# physchem = conditions: 66% dimethylformamide-water
# [4] = tested on: Ascaris lumbricoides var. suum; assay: anthelmintic evaluation in mice by treated feed, separate factors (Example 13); format: in vivo; conditions: 0.05 percent in diet, control 2.66
# Text: The feeds were utilized as diets for separate groups of mice, five mice per group. About twelve hours after initiation of the feeding, the mice were infected with Ascaris lumbricoides var. suum ova. Another group of five mice was fed the non-medicated feed to serve as a control but was similarly infected at the same time with Ascaris lumbricoides var. suum. All groups were fed their respective feed and maintained under normal laboratory conditions for a period of eight days, at which time all mice were taken off feed. On the ninth day, all mice were sacrificed and the lungs examined to determine the presence, and if present, numbers, of lesions of Ascaris lumbricoides var. suum.
# In a further evaluation, the monoammonium salts of A16886I and A16886II were separately evaluated for the control of Ascaris lumbricoides var. suum. The evaluations were conducted in accordance with the procedure reported in Example 11 at a concentration in the diet of 0.05 percent.
# Pseudomonas solanacearum = format: in vivo; conditions: 100 ppm.; 0 = no control, 4 = complete control; heavy infestation in controls
# [5] = tested on: Klebsiella-Aerobacter KA 25; assay: Bauer-Kirby disc diffusion, zone of inhibition; format: cell-based
# Proteus sp. PR6 = assay: Bauer-Kirby disc diffusion, zone of inhibition; format: cell-based
# Salmonella typhosa SA 12 = assay: Bauer-Kirby disc diffusion, zone of inhibition; conditions: Salmonella enterica
# Text: as §1
smiles,measurement,setting,value
"COC1(NC(=O)CCCC(N)C(=O)O)C(=O)N2C(C(=O)O)=C(COC(N)=O)CS[C@@H]21 (stereo partly drawn) [A16886I, 7-(5-amino-5-carboxyvaleramido)-3-(carbamoyloxymethyl)-7-methoxy-3-cephem-4-carboxylic acid]",zone of inhibition at 0.5 µg/disc,Escherichia coli 0127; 0.5 μg./disc,8.4 mm
same,zone of inhibition at 1 µg/disc,Escherichia coli 0127; 1.0 μg./disc,12.7 mm
same,zone of inhibition at 2.5 µg/disc,Escherichia coli 0127; 2.5 μg./disc,15.9 mm
same,zone of inhibition at 5 µg/disc,Escherichia coli 0127; 5 μg./disc,18.6 mm
same,zone of inhibition at 10 µg/disc,Escherichia coli 0127; 10 μg./disc,20.7 mm
same,zone of inhibition at 30 µg/disc,Escherichia coli 0127; 30 μg./disc,25.6 mm
same,zone of inhibition at 0.5 µg/disc,"Pseudomonas sp. Ps 24; SP.PS24, 0.5 μg./disc",0 mm
same,zone of inhibition at 1 µg/disc,"Pseudomonas sp. Ps 24; SP.PS24, 1.0 μg./disc",10.1 mm
same,zone of inhibition at 2.5 µg/disc,"Pseudomonas sp. Ps 24; SP.PS24, 2.5 μg./disc, * = satellite colonies within zone (Factor II)",13.2 mm
same,zone of inhibition at 5 µg/disc,"Pseudomonas sp. Ps 24; SP.PS24, 5 μg./disc, * = satellite colonies within zone (Factor II)",15.7 mm
same,zone of inhibition at 10 µg/disc,"Pseudomonas sp. Ps 24; SP.PS24, 10 μg./disc",18.2 mm
same,zone of inhibition at 30 µg/disc,"Pseudomonas sp. Ps 24; SP.PS24, 30 μg./disc",23 mm
same,zone of inhibition at 0.5 µg/disc,"Escherichia coli EC 25; EC25, 0.5 μg./disc",0 mm
same,zone of inhibition at 1 µg/disc,"Escherichia coli EC 25; EC25, 1.0 μg./disc",0 mm
same,zone of inhibition at 2.5 µg/disc,"Escherichia coli EC 25; EC25, 2.5 μg./disc",9.1 mm
same,zone of inhibition at 5 µg/disc,"Escherichia coli EC 25; EC25, 5 μg./disc",12.5 mm
same,zone of inhibition at 10 µg/disc,"Escherichia coli EC 25; EC25, 10 μg./disc",15.1 mm
same,zone of inhibition at 30 µg/disc,"Escherichia coli EC 25; EC25, 30 μg./disc",19.6 mm
same,solubility in acetonitrile and other organic solvents,solubility; acetonitrile and other organic solvents,essentially insoluble
same,solubility in lower alkanols,solubility; lower alkanols,slightly soluble
same,solubility in water,solubility; water,very soluble
same,zone of inhibition at 0.5 µg/disc,[1]; 0.5 μg./disc,0 mm
same,zone of inhibition at 1 µg/disc,[1]; 1.0 μg./disc,7.6 mm
same,zone of inhibition at 2.5 µg/disc,[1]; 2.5 μg./disc,11.4 mm
same,zone of inhibition at 5 µg/disc,[1]; 5 μg./disc,15.4 mm
same,zone of inhibition at 10 µg/disc,[1]; 10 μg./disc,18.8 mm
same,zone of inhibition at 30 µg/disc,[1]; 30 μg./disc,23 mm
same,zone of inhibition at 0.5 µg/disc,[2]; 0.5 μg./disc,0 mm
same,zone of inhibition at 1 µg/disc,[2]; 1.0 μg./disc,0 mm
same,zone of inhibition at 2.5 µg/disc,[2]; 2.5 μg./disc,0 mm
same,zone of inhibition at 5 µg/disc,[2]; 5 μg./disc,0 mm
same,zone of inhibition at 10 µg/disc,[2]; 10 μg./disc,0 mm
same,zone of inhibition at 30 µg/disc,[2]; 30 μg./disc,0 mm
same,zone of inhibition at 0.5 µg/disc,"Pseudomonas sp. Ps 30; SP.PS30, 0.5 μg./disc",0 mm
same,zone of inhibition at 1 µg/disc,"Pseudomonas sp. Ps 30; SP.PS30, 1.0 μg./disc",0 mm
same,zone of inhibition at 2.5 µg/disc,"Pseudomonas sp. Ps 30; SP.PS30, 2.5 μg./disc",0 mm
same,zone of inhibition at 5 µg/disc,"Pseudomonas sp. Ps 30; SP.PS30, 5 μg./disc",0 mm
same,zone of inhibition at 10 µg/disc,"Pseudomonas sp. Ps 30; SP.PS30, 10 μg./disc",0 mm
same,zone of inhibition at 30 µg/disc,"Pseudomonas sp. Ps 30; SP.PS30, 30 μg./disc",0 mm
same,zone of inhibition at 0.5 µg/disc,Proteus sp. PR7; 0.5 μg./disc,0 mm
same,zone of inhibition at 1 µg/disc,Proteus sp. PR7; 1.0 μg./disc,0 mm
same,zone of inhibition at 2.5 µg/disc,Proteus sp. PR7; 2.5 μg./disc,0 mm
same,zone of inhibition at 5 µg/disc,Proteus sp. PR7; 5 μg./disc,0 mm
same,zone of inhibition at 10 µg/disc,Proteus sp. PR7; 10 μg./disc,10.4 mm
same,zone of inhibition at 30 µg/disc,Proteus sp. PR7; 30 μg./disc,14 mm
same,zone of inhibition at 0.5 µg/disc,Salmonella typhosa SA 16,0 mm
same,zone of inhibition at 1 µg/disc,Salmonella typhosa SA 16,9.3 mm
same,zone of inhibition at 2.5 µg/disc,Salmonella typhosa SA 16,13.1 mm
same,zone of inhibition at 5 µg/disc,Salmonella typhosa SA 16,16.2 mm
same,zone of inhibition at 10 µg/disc,Salmonella typhosa SA 16,19.6 mm
same,zone of inhibition at 30 µg/disc,Salmonella typhosa SA 16,24.2 mm
same,zone of inhibition at 0.5 µg/disc,[3]; 0.5 μg./disc,0 mm
same,zone of inhibition at 1 µg/disc,[3]; 1.0 μg./disc,0 mm
same,zone of inhibition at 2.5 µg/disc,[3]; 2.5 μg./disc,0 mm
same,zone of inhibition at 5 µg/disc,[3]; 5 μg./disc,0 mm
same,zone of inhibition at 10 µg/disc,[3]; 10 μg./disc,0 mm
same,zone of inhibition at 30 µg/disc,[3]; 30 μg./disc,0 mm
same,pKa,"physchem; pH 6.5, pK'a1",4.1
same,pKa,"physchem; pH 6.5, pK'a2",5.2
same,pKa,"physchem; pH 6.5, pK'a3",9.3
same,pKa,"physchem; pH 6.5, pK'a4",10.5
same,Average Number of Lung Lesions Per Group,[4],0.46
same,Disease Rating,Pseudomonas solanacearum,4
same,zone of inhibition at 0.5 µg/disc,[5]; 0.5 μg./disc,0 mm
same,zone of inhibition at 1 µg/disc,[5]; 1.0 μg./disc,0 mm
same,zone of inhibition at 2.5 µg/disc,[5]; 2.5 μg./disc,9 mm
same,zone of inhibition at 5 µg/disc,[5]; 5 μg./disc,12.3 mm
same,zone of inhibition at 10 µg/disc,[5]; 10 μg./disc,15.8 mm
same,zone of inhibition at 30 µg/disc,[5]; 30 μg./disc,22.1 mm
same,zone of inhibition at 0.5 µg/disc,Proteus sp. PR6; 0.5 μg./disc,0 mm
same,zone of inhibition at 1 µg/disc,Proteus sp. PR6; 1.0 μg./disc,9.9 mm
same,zone of inhibition at 2.5 µg/disc,Proteus sp. PR6; 2.5 μg./disc,13.6 mm
same,zone of inhibition at 5 µg/disc,Proteus sp. PR6; 5 μg./disc,16.7 mm
same,zone of inhibition at 10 µg/disc,Proteus sp. PR6; 10 μg./disc,19 mm
same,zone of inhibition at 30 µg/disc,Proteus sp. PR6; 30 μg./disc,23.2 mm
same,zone of inhibition at 0.5 µg/disc,Salmonella typhosa SA 12,8 mm
same,zone of inhibition at 1 µg/disc,Salmonella typhosa SA 12,11.3 mm
same,zone of inhibition at 2.5 µg/disc,Salmonella typhosa SA 12,16.9 mm
same,zone of inhibition at 5 µg/disc,Salmonella typhosa SA 12,19.9 mm
same,zone of inhibition at 10 µg/disc,Salmonella typhosa SA 12,22.8 mm
same,zone of inhibition at 30 µg/disc,Salmonella typhosa SA 12,27.2 mm
